Data as given in PMC8125528 (Molecules, 2021).
Where two headings read alike, the source gives them in different places.

Assays:
Caco-2 cells = experiment: cells; settings: Homo sapiens, Caco-2, 72 h, read-out: Estimated IC50, Caco-2
Method: (§1) The antiproliferative effect of compounds was evaluated by the 3-(4,5-dimethylthiazol-2-yl)-2,5-diphenyltetrazolium bromide (MTT; Sigma-Aldrich, St Louis, MO, USA) assay in MCF-7, T47-D, LNCaP, HepaRG, Caco-2 and NHDF cells. After reaching near confluence, cells were trypsinized and counted with a hemocytometer by means of the trypan-blue exclusion of dead cells. Then, 100 µL of cell suspension (2 × 10^4 cells/mL) was seeded in 96-well culture plates and left to adhere and growth during 48 h. […] Afterward, MTT containing medium was removed and formazan crystals were dissolved in DMSO. Absorbance was measured at 570 nm using a microplate reader Bio-rad Xmark spectrophotometer. After background subtraction, cell proliferation values were expressed as percentage relatively to the absorbance determined in negative control cells. Untreated cells were used as the negative control and the clinical drug 5-fluorouracil (5-FU) was used as positive control. Each experiment was performed in quadruplicate and independently repeated.
(§2) Data were expressed as mean ± standard deviation (SD). t-Student test (two groups) and one-way ANOVA (three groups) were used followed by Bonferroni post hoc tests to determine statistically significant differences among the means.

MCF-7 cells = experiment: MTT antiproliferative assay, MCF-7; format: cell-based; settings: for IC50: Homo sapiens, MCF7, breast MCF-7 cells, 72 h, MTT assay, 0.1-100 µM, read-out: Estimated IC50, MCF-7; for Selectivity index, MCF-7: ratio of IC50 in NHDF to IC50 in MCF-7
Method: (§3) Each experiment was performed in quadruplicate and independently repeated.

HepaRG cells = experiment: MTT antiproliferative assay, HepaRG; format: cell-based; settings: for IC50: Homo sapiens, liver HepaRG cells, 72 h, MTT assay, 0.1-100 µM, read-out: Estimated IC50, HepaRG; for Selectivity index, HepaRG: ratio of IC50 in NHDF to IC50 in HepaRG
Method: as §3

[1] = system: MCF-7, T47D, LNCaP, HepaRG, Caco-2 and NHDF cell lines; experiment: MTT screening at 30 µM in six cell lines; format: cell-based; settings: 72 h
Method: as §3

LNCaP cells [2] = experiment: Cell cycle distribution of LNCaP cells by flow cytometry; format: cell-based; settings: 50 µM, 24 h
Method: After 24 h of treatment with compound 11 at 50 µM (6-well plates, 5 × 10^4 cells/mL), LNCaP cells were collected and washed with PBS and resuspended in 450 µL of a cold solution of 0.5% bovine serum albumin (BSA; Amresco, Solon, OH, USA) and 1 mM EDTA in PBS, followed by fixation with 70% EtOH and kept at −20 °C. Afterward, fixed cells were washed twice with PBS and resuspended in a solution of PI (50 µg/mL) prepared in 0.5% BSA and 1 mM EDTA in PBS and then incubated with Ribonuclease A from bovine pancreas at a final concentration of 0.5 µg/µL (solution in 50% glycerol, 10 mM Tris-HCl, pH 8; Sigma Aldrich, St Louis, MO, USA) for 15 min in the dark. For comparison, untreated cells were used as negative control and cells treated with 5-FU at 50 µM were used as positive control. Each experiment was performed in duplicate and independently repeated. A minimum of 10,000 events was acquired using BD Accuri Software and analysis was performed by Modfit software (Becton Dickinson, San Jose, CA, USA).

T47-D cells = experiment: MTT antiproliferative assay, T47-D; format: cell-based; settings: for IC50: Homo sapiens, T47D, breast T47-D cells, 72 h, MTT assay, 0.1-100 µM, read-out: Estimated IC50, T47-D; for Selectivity index, T47-D: ratio of IC50 in NHDF to IC50 in T47-D
Method: as §3

in vitro = settings: human, Caco-2
Method: as §1, §2

LNCaP cells [3] = experiment: LNCaP cell viability by flow cytometry after propidium iodide staining; format: cell-based; settings: 50 µM, 24 h, PI flow cytometry
Method: The analysis of LNCaP cells viability was performed by flow cytometry after staining with propidium iodide (PI) (solution of PI 1 mg/mL in 0.1% of sodium azide and water; Sigma Aldrich, St Louis, MO, USA). Briefly, 3 mL of cells suspension were seeded in 6-well plates (5 × 10^4 cells/mL) in complete culture medium. After 48 h they were treated with 50 µM of compound 11. Untreated cells were used as negative control and 5-FU (50 µM) was used as positive control. Each experiment was performed in duplicate and independently repeated. At the end of 24 h of incubation, the supernatant of each well was collected, cells were harvested by trypsinization and pooled with the supernatants. The resulting cell suspension was kept on ice, pelleted by centrifugation and resuspended in 400 µL of complete medium. Afterward, 395 µL of the cell suspension was transferred to a FACS tube and 5 µL of PI and 0.5 µL of ethylenediamine tetraacetic acid (EDTA, 0.123 M) were added. A minimum of 20,000 events was acquired using a BD Accuri C6 (San Jose, CA, USA) flow cytometer in the channels forward scatter (FSC), side scatter (SSC) and fluorescence channel-3 (FL3, for PI). Acquisition and analysis were performed with BD Accuri Software. […]

LNCaP cells [4] = experiment: MTT antiproliferative assay, LNCaP; format: cell-based; settings: for IC50: Homo sapiens, prostate LNCaP cells, MTT assay, 0.1-100 µM, read-out: Estimated IC50, LNCaP; for Selectivity index, LNCaP: ratio of IC50 in NHDF to IC50 in LNCaP
Method: as §3

[5] = system: normal human dermal fibroblasts (NHDF); experiment: MTT antiproliferative assay, NHDF; format: cell-based; settings: normal fibroblast NHDF cells, 72 h, 0.1-100 µM, read-out: Estimated IC50, NHDF
Method: as §3

[6] = system: estrogen-sensitive breast cancer T47-D cells (ER+); experiment: E-screening (estrogenicity) assay in T47-D cells; format: cell-based; settings: 0.001 and 0.01 µM, vs. negative control, MTT readout
Method: After overnight incubation, the medium was replaced every 3 days with fresh phenol red free RPMI 1640 medium supplemented with 5% of dextran-coated charcoal-treated fetal calf serum (DCC-FCS) and containing compound 11 (0.1, 0.01 and 0.001 µM). […] Each experiment was performed in quadruplicate and independently repeated.

LNCaP cells [7] = experiment: Fluorescence microscopy of LNCaP cells after Hoechst 33258 DNA staining; format: cell-based; settings: 50 µM, 24 h
Method: Near-confluent LNCaP cells were seeded in a 6-well plate (5 × 10^4 cells/mL). After adherence and incubation for 24h with compound 11 (50 µM), the dye Hoechst 33,258 was added to the culture medium to achieve a final concentration of 1µg/mL. The cells were incubated for 15 min at 37 °C and were then photographed by means of a Nikon Eclipse microscope equipped with a fluorescence attachment containing the appropriate optical blocks and a QCapture CCD camera.

uterine growth = system: uterine growth; design: method as in PMID 10447965; settings: ovariectomized rats; cited from earlier work
HepaRG cell cycle = system: HepaRG cell cycle; design: method as in doi:10.5802/crchim.17; settings: HepaRG cells; cited from earlier work
[8] = system: estrogen-sensitive breast cancer T47-D cells (ER+); design: method as in doi:10.5802/crchim.17; settings: previous study; cited from earlier work
17β-HSD1 = settings: at 10 μM; cited from earlier work

Q: For `C[C@]12CC[C@@H]3c4cc([N+](=O)[O-])c(O)cc4CC[C@H]3[C@@H]1CCC2=NO` [Compound 5, 17-hydroxyimino-2-nitroestra-1,3,5(10)-trien-3-ol], which IC50 (Caco-2 cells) is on record?
A: 18.5 µM

Q: And the IC50 (MCF-7 cells)?
A: 16.8 µM

Q: And the IC50 (HepaRG cells)?
A: 12.3 µM

Q: Which IC50 (HepaRG cells) does the source give for `C[C@]12CCC3c4cc(Br)c(O)c(Br)c4CCC3C1CCC2=NO` (stereo partly drawn) [Compound 12, 17-hydroxyimino-2,4-dibromo-3-hydroxyestra-1,3,5(10)-trien-3-ol] here?
A: 21.9 µM

Q: With `C[C@]12CC[C@@H]3c4cc([N+](=O)[O-])c(O)c([N+](=O)[O-])c4CC[C@H]3[C@@H]1CCC2=NO` [Compound 6, 17-hydroxyimino-2,4-dinitroestra-1,3,5(10)-trien-3-ol] as the molecule, how does the “Cytotoxic/antiproliferative effect in screening” value [1] read?
A: low antiproliferative activity

Q: Which results are given for `O=c1[nH]cc(F)c(=O)[nH]1` [Compound 5-FU, 5-fluorouracil, reference compound]?
A: Effect on cell cycle distribution (LNCaP cells [2]): not able to pass through to the S and G2/M phases; IC50 (T47-D cells): 0.54 µM; Selectivity index, T47-D (T47-D cells): 6.69; selectivity ratio at 72 h (in vitro): 2.76; IC50 (Caco-2 cells): 1.31 µM; Reduction in cell viability (LNCaP cells [3]): 12%; IC50 (LNCaP cells [4]; 72 h): 7.79 µM; Selectivity index, LNCaP (LNCaP cells [4]): 0.46; Selectivity index, MCF-7 (MCF-7 cells): 2.11; IC50 [5]: 3.61 µM; IC50 (HepaRG cells): 1.78 µM; Selectivity index, HepaRG (HepaRG cells): 2.03

Q: Which “Effect on cell cycle distribution” value (LNCaP cells [2]) does the source give for `C[C@]12CC=C3c4ccc(O)cc4CCC3C1CCC2=NO` (stereo partly drawn) [Compound 11, 17-hydroxyimino-3-hydroxyestra-1,3,5(10),9(11)-tetraen-3-ol] here?
A: induced a G2/M cell cycle arrest

Q: And the IC50 (T47-D cells)?
A: 43.5 µM

Q: And the “Selectivity index, T47-D” value (T47-D cells)?
A: 0.71

Q: And the selectivity ratio at 72 h (in vitro)?
A: 1.27

Q: And the IC50 (Caco-2 cells)?
A: 24.3 µM

Q: And the “Reduction in cell viability” value (LNCaP cells [3])?
A: 11%

Q: And the “Proliferative/estrogenic effect on T47-D cells” value (from here on “Proliferative/estrogenic effect”) [6]?
A: stimulated the cell proliferation

Q: And the IC50 (LNCaP cells [4]; 72 h)?
A: 3.59 µM

Q: What about the “Reduction of cell proliferation in screening” value (LNCaP cells [4]; LNCaP cells, 30 µM, 72 h, MTT) of the same molecule?
A: significant reduction of LNCaP cells proliferation

Q: And the “Selectivity index, LNCaP” value (LNCaP cells [4])?
A: 8.59

Q: What about the IC50 (MCF-7 cells) of the same molecule?
A: 25.6 µM

Q: What about the “Selectivity index, MCF-7” value (MCF-7 cells) of the same molecule?
A: 1.20

Q: What about the “Nuclei morphology (Hoechst 33,258)” value (LNCaP cells [7]) of the same molecule?
A: condensed DNA, typical of prophase, and a small proportion of condensed and fragmented nuclei, typical of apoptosis

Q: What about the IC50 [5] of the same molecule?
A: 30.8 µM

Q: What about the IC50 (HepaRG cells) of the same molecule?
A: 18.4 µM

Q: And the “Selectivity index, HepaRG” value (HepaRG cells)?
A: 1.68

Q: With `C[C@]12CC[C@@H]3c4ccc(OS(N)(=O)=O)cc4CC[C@H]3[C@@H]1CCC2=O` [EMATE, estrone sulfamate] as the molecule, how does the “Stimulatory effect on the uterine growth” value (uterine growth) read?
A: 0.11 g

Q: Which “Proliferative/estrogenic effect” value [6] does the source give for `C[C@]12CC[C@@H]3c4ccc(O)cc4CC[C@H]3[C@@H]1CC[C@@H]2O` [Compound E2, 17β-estradiol, reference compound] here?
A: stimulated the cell proliferation

Q: Which IC50 (HepaRG cells) does the source give for `C[C@]12CC[C@@H]3c4cc(I)c(O)c(I)c4CC[C@H]3[C@@H]1CCC2=NO` [Compound 10, 17-hydroxyimino-2,4-diiodooestra-1,3,5(10)-trien-3-ol] here?
A: 28 µM

Q: Which IC50 (T47-D cells) does the source give for `C[C@]12CC[C@@H]3c4ccc(O)cc4CC[C@H]3[C@@H]1CCC2=NO` [Compound 2, 17-hydroxyiminoestra-1,3,5(10)-trien-3-ol] here?
A: 29.3 µM

Q: What about the “Selectivity index, T47-D” value (T47-D cells) of the same molecule?
A: 1.50

Q: What about the IC50 (MCF-7 cells) of the same molecule?
A: 26.7 µM

Q: What about the “Selectivity index, MCF-7” value (MCF-7 cells) of the same molecule?
A: 1.65

Q: And the IC50 [5]?
A: 43.9 µM

Q: What about the IC50 (HepaRG cells) of the same molecule?
A: 16.9 µM

Q: And the “Selectivity index, HepaRG” value (HepaRG cells)?
A: 2.59

Q: With `C[C@]12CCC3c4ccc(OS(N)(=O)=O)cc4CCC3C1CC/C2=N\O` (stereo partly drawn) [OMATE, estrone oxime sulfamate] as the molecule, how does the “Stimulatory effect on the uterine growth” value (uterine growth) read?
A: 0.15 g

Q: For `C[C@]12CC=C3c4ccc(O)cc4CCC3C1CCC2=O` (stereo partly drawn) [Compound 8, Δ^9,11-E1], which “Effect on cell cycle” value (HepaRG cell cycle) is on record?
A: induced an arrest at G0/G1

Q: And the “Proliferative/estrogenic effect” value [8]?
A: stimulated the proliferation of T47-D cells

Q: With `C[C@]12CC[C@@H]3c4ccc(O)cc4CC[C@H]3[C@@H]1CCC2=O` [Compound 1, estrone, reference compound] as the molecule, how does the IC50 (Caco-2 cells) read?
A: 42.7 µM

Q: And the IC50 (MCF-7 cells)?
A: 41.9 µM

Q: And the IC50 [5]?
A: 61.8 µM

Q: And the IC50 (HepaRG cells)?
A: 29.5 µM

Q: Which “% inhibition of 17β-HSD1” value (17β-HSD1) does the source give for `CC12CCC3c4ccc(O)cc4CCC3C1CC(=NO)C2=O` (stereo not drawn) [Compound 16-oxime] here?
A: 96%
